Where “and” joins values, the source holds several entries; their conditions need not be identical. Identical values can stand only once.

We go through 31 compounds from US4025555A, “Aromatic amidines as antiviral agents in animals” (Pfizer Inc., priority 1976, dated 1977).

The subject of one assay is circulating interferon.
Test: not given
As to conditions: mouse, in vivo, ip. More on the design: species or system female Swiss mice.
Consider `CCCCCCCCCCCCCCCCN(CCCCCCCCCCCCCCCC)Cc1cccc(C(=N)Nc2ccc(O)c(C)c2)c1` [Example 30], for which the “Plasma Interferon Levels” value is 66 units/ml. and 87 units/ml. and 61 units/ml. and 64 units/ml.

The next assay relates to encephalomyocarditis (EMC) virus. Nature of the assay: Antiviral activity in mice challenged with lethal dose of encephalomyocarditis (EMC) virus (survival, relative survival, ED50). It counts as in vivo, female albino mice. As to conditions: Mus musculus, ip, 240 h; as mg. dihydrochloride salt; i.p. 18-24 h before EMC virus challenge; day 10; read-out: ED50. How it is done: The antiviral activity of the compounds of formula I is determined by the following procedure. The test compound is administered to mice by the intraperitoneal route eighteen to twenty-four hours prior to challenging them with a lethal dose of encephalomyocarditis (EMC) virus. The survival rate is determined ten days after challenge and an ED50 [dosage level (mg of compound/kg body weight) required to obtain a fifty percent survival rate] calculated. The procedure in which the drug is given eighteen to twenty-four hours before, and at a distinctly different site from, virus injection is designed to eliminate local effects between drug and virus and identify only those compounds which produce a systemic antiviral response.
Three groups of ten female albino mice (20-25 g. body weight) were given single 0.5 ml. intraperitoneal injections containing dosage levels of 1.5, 5, and 15 mg. of the named compound/kg. body weight, respectively. A fourth control group was given no such injection. Eighteen to twenty-four hours later all four groups were challenged with a 0.2 ml. subcutaneous injection containing 20-30 times the LD50, the dosage level causing a 50% death rate in ten days, of encephalomyocarditis (EMC) virus. The following survival data were recorded for the following ten days:
Antiviral activity is expressed as the relative survival (Sr) in experimental groups compared to the controls on the tenth day after challenge. Sr is defined by the formula [formula] wherein Sr = relative survival […]
Sx = percent survival after ten days in experimental group xi = number of survivors on the ith day in experimental group ei = number of survivors on the ith day in control group
The ED50 [dosage level (mg. of compound/kg. body weight) required to obtain a fifty percent survival rate] is determined graphically by plotting Sr (ordinate) vs. 1n dosage level (abscissa) and then fitting the points with a line of predetermined slope by least squares. The dosage level at which this fitted line has an ordinate of 50 is equivalent to the ED50.
In like manner to that described in Example 113 the antiviral activity was determined for the compounds listed below.
The ED50 is the midpoint of the dose-response relation. For the compound `CCCCCCCCCCCCCCCCN(CCCCCCCCCCCCCCCC)Cc1cccc(C(=N)N)c1` [Example 2, m-[N,N-Di-(n-hexadecyl)aminomethyl]-benzamidine], the ED50 came out at 4.7 mg/kg.

Take `CCCCCCCCCCCCCCCCN(CCCCCCCCCCCCCCCC)Cc1cccc(C(=N)NC(=O)C(=O)O)c1` [Example 4, m-[N,N-Di(n-hexadecyl)aminomethyl]-N-oxoacetic acid-benzamidine]: the ED50 was found to be 9.9 mg/kg.

For the compound `CCCCCCCCCCCCCCCCN(CCCCCCCCCCCCCCCC)Cc1cccc(C(=N)Nc2ccc(OC)cc2)c1` [Example 6, m-[N,N-Di(n-hexadecyl)aminomethyl]-N-(p-methoxyphenyl)-benzamidine], the ED50 is 5.3 mg/kg.

For the compound `CCCCCCCCCCCCCCCCN(CCCCCCCCCCCCCCCC)Cc1cccc(C(=N)Nc2ccccc2)c1` [Example 7], the ED50 came out at 12.3 mg/kg.

As for `CCCCCCCCCCCCCCCCN(CCCCCCCCCCCCCCCC)Cc1cccc(C(=N)Nc2ccc(Cl)cc2)c1` [Example 8], the ED50 is 16 mg/kg.

For the compound `CCCCCCCCCCCCCCCCN(CCCCCCCCCCCCCCCC)Cc1cccc(C(=N)Nc2ccc(C)cc2)c1` [Example 9], the ED50 was 7.7 mg/kg.

On to `CCCCCCCCCCCCCCCCN(CCCCCCCCCCCCCCCC)Cc1cccc(C(=N)Nc2ccccn2)c1` [Example 10], for which the ED50 was 49.3 mg/kg.

As for `CCCCCCCCCCCCCCCCN(CCCCCCCCCCCCCCCC)Cc1cccc(C(=N)Nc2ccc(Cl)cc2Cl)c1` [Example 11], the ED50 turned out to be 35.7 mg/kg.

For `CCCCCCCCCCCCCCCCN(CCCCCCCCCCCCCCCC)Cc1cccc(C(=N)Nc2ccc(O)cc2)c1` [Example 12], the ED50 is 4.9 mg/kg.

Regarding `CCCCCCCCCCCCCCCCN(CCCCCCCCCCCCCCCC)Cc1cccc(C(=N)Nc2cccc([N+](=O)[O-])c2)c1` [Example 13], the ED50 was 21.6 mg/kg.

For `CCCCCCCCCCCCCCCCN(CCCCCCCCCCCCCCCC)Cc1cccc(C(=N)Nc2ccc(N(C)C)cc2)c1` [Example 14], the ED50 came to 8 mg/kg.

Turning to `CCCCCCCCCCCCCCCCN(CCCCCCCCCCCCCCCC)Cc1cccc(C(=N)Nc2ccc(F)cc2)c1` [Example 15], the ED50 worked out at 38 mg/kg.

Regarding `CCCCCCCCCCCCCCCCN(CCCCCCCCCCCCCCCC)Cc1cccc(C(=N)Nc2ccc(S(N)(=O)=O)cc2)c1` [Example 16], the ED50 came out at 7 mg/kg.

For the compound `CCCCCCCCCCCCCCCCN(CCCCCCCCCCCCCCCC)Cc1cccc(C(=N)Nc2ncccn2)c1` [Example 17], the ED50 was 12.9 mg/kg.

Consider `CCCCCCCCCCCCCCCCN(CCCCCCCCCCCCCCCC)Cc1cccc(C(=N)Nc2ccc(OCC)cc2)c1` [Example 18], for which the ED50 was 17.9 mg/kg.

`CCCCCCCCCCCCCCCCN(CCCCCCCCCCCCCCCC)Cc1cccc(C(=N)Nc2ccc(S(C)(=O)=O)cc2)c1` [Example 19]: the ED50 came to 8.9 mg/kg.

In the case of `CCCCCCCCCCCCCCCCN(CCCCCCCCCCCCCCCC)Cc1cccc(C(=N)NC2CCCC2)c1` [Example 20, m-[N,N-Di(n-hexadecyl)aminomethyl]-N-cyclopentyl-benzamidine], the ED50 came to 27.3 mg/kg.

With `CCCCCCCCCCCCCCCCN(CCCCCCCCCCCCCCCC)Cc1cccc(C(=N)Nc2nc(C)cs2)c1` [Example 21], the 50% effective dose (ED50) turned out to be 47.5 mg/kg.

Turning to `CCCCCCCCCCCCCCCCN(CCCCCCCCCCCCCCCC)Cc1cccc(C(=N)NCc2ccccc2)c1` [Example 22], the ED50 was determined as 7.8 mg/kg.

As for `CCCCCCCCCCCCCCCCN(CCCCCCCCCCCCCCCC)Cc1cccc(C(=N)NN(C)C)c1` [Example 23, m-[N,N-di(n-hexadecyl)aminomethyl]-N-dimethylamino-benzamidine], the ED50 was 5 mg/kg.

For `CCCCCCCCCCCCCCCCN(CCCCCCCCCCCCCCCC)Cc1cccc(C(=N)NC(C)C)c1` [Example 25, m-[N,N-di(n-hexadecyl)aminomethyl]-N-(2-propyl)-benzamidine], the ED50 worked out at 2.8 mg/kg.

In the case of `CCCCCCCCCCCCCCCCN(CCCCCCCCCCCCCCCC)Cc1cccc(C(=N)NCC)c1` [Example 26], the 50% effective dose (ED50) was 7.6 mg/kg.

As for `CCCCCCCCCCCCCCCCN(CCCCCCCCCCCCCCCC)Cc1cccc(C(=N)NC)c1` [Example 27, m-[N,N-di(n-hexadecyl)aminomethyl]-N-methyl-benzamidine], the ED50 turned out to be 5.7 mg/kg.

For `CCCCCCCCCCCCCCCCN(CCCCCCCCCCCCCCCC)Cc1cccc(C(=N)NCC(F)(F)F)c1` [Example 28, m-[N,N-Di(n-hexadecyl)aminomethyl]-N-(2,2,2-trifluoroethyl)-benzamidine], the ED50 was 3.8 mg/kg.

In the case of `CCCCCCCCCCCCCCCCN(CCCCCCCCCCCCCCCC)Cc1cccc(C(=N)NCC2CC2)c1` [Example 29], the ED50 stood at 6.9 mg/kg.

Regarding `CCCCCCCCCCCCCCCCN(CCCCCCCCCCCCCCCC)Cc1cccc(C(=N)Nc2ccc(O)c(C)c2)c1` [Example 30], the ED50 amounted to 7.7 mg/kg.

On to `CCCCCCCCCCCCCCCCN(CCCCCCCCCCCCCCCC)Cc1cccc(C(=N)NCCc2cnc[nH]2)c1` [Example 31], for which the ED50 worked out at 11.7 mg/kg.

As for `CCCCCCCCCCCCCCCCN(CCCCCCCCCCCCCCCC)Cc1cccc(C(=N)Nc2ccc([N+](C)(C)C)cc2)c1` [Example 32], the ED50 turned out to be 7.4 mg/kg.

In the case of `CCCCCCCCCCCCCCCCN(CCCCCCCCCCCCCCCC)Cc1cccc(C(=N)Nc2ccc(O)cc2O)c1` [Example 33], the ED50 turned out to be 37.2 mg/kg.

Still in this assay, the particulars now being: Mus musculus, ip, 240 h; as mg. free base (Example 115); i.p. 18-24 h before EMC virus challenge; day 10; read-out: ED50.
In the case of `CCCCCCCCCCCCCCCCN(CCCCCCCCCCCCCCCC)Cc1cccc(C(=N)NCCCS(=O)(=O)O)c1` [Example 3, m-[N,N-Di(n-hexadecyl)aminomethyl]-N-(n-propane)sulfonic acid-benzamidine], the ED50 amounted to 8 mg/kg.

Staying with this assay, now noted: Mus musculus, ip, 240 h; i.p. 18-24 h before s.c. EMC virus challenge; graphical, day 10; read-out: ED50 (dosage level required to obtain a fifty percent survival rate).
In the case of `C=CCNC(=N)c1cccc(CN(CCCCCCCCCCCCCCCC)CCCCCCCCCCCCCCCC)c1` [Example 24, m-[N,N-di(n-hexadecyl)aminomethyl]-N-allyl-benzamidine], the ED50 worked out at 4.7 mg/kg.

The same assay, now with this note: mouse, in vivo, ip.
As for `C=CCNC(=N)c1cccc(CN(CCCCCCCCCCCCCCCC)CCCCCCCCCCCCCCCC)c1` [Example 24, m-[N,N-di(n-hexadecyl)aminomethyl]-N-allyl-benzamidine], the “Number of Survivors on Day 0” value was found to be 10, the “Number of Survivors on Day 1” value came out at 10, the “Number of Survivors on Day 2” value is given as 10 and the “Number of Survivors on Day 3” value is reported as 10. Also, the “Number of Survivors on Day 4” value was 9 and 10; the “Number of Survivors on Day 5” value is 8 and 6 and 5; the “Number of Survivors on Day 6” value was 8 and 6 and 4.
